{"source": "patent US8680058B2", "about": "“Selectively targeted antimicrobial peptides and the use thereof” (priority 2006, dated 2014)", "key": {"[1]": {"tested_on": "S. gordonii", "format": "cell-based, S. gordonii Challis (DL1)", "procedure": "(§1) 1.3 Determination of antimicrobial activity. The general antimicrobial activity of peptides against planktonic bacteria was determined by a MIC assay in TH broth (all oral streptococci) (Qi et al., 2005).\n(§2) S. mutans, S. gordonii Challis (DL1), and S. sanguinis NY101 strains were grown in Todd Hewitt (TH, Fisher) broth medium at 37° C. under anaerobic conditions (80% N2, 10% CO2, and 10% H2). S. mutans strains UA159 (Ajdic et al., 2002), ATCC 25175, and T8 (Rogers, 1975), are wild-type clinical isolates, while comD is a knockout mutant that was constructed previously from the wild-type UA140 background (Qi et al., 2005). Luciferase expressing S. mutans strain JM11 was constructed from UA140 as described (Merritt et al., 2005). Exponentially growing bacterial cells were diluted to ˜1×10^5 cfu/mL in TH and placed into 96-well plates (Fisher). Peptides were then serially diluted and added to the bacteria."}, "[2]": {"tested_on": "S. mutans JM11 within a multi-species biofilm", "assay": "Multi-species biofilm in saliva, luciferase readout of S. mutans JM11", "format": "cell-based, Streptococcus mutans", "details": "25 μM in saliva, 5 min exposure", "procedure": "1.6 Evaluation of antimicrobial activity against bacterial biofilm in saliva. For these experiments, we employed methods similar to those previously described (Bleher et al., 2003). A day prior to the assay, saliva was collected and pooled from 5 adult volunteers in the laboratory, diluted 1:4 in TH broth and centrifuged 2,000×g for 10 min. The supernatant was then filter sterilized (0.2 μm filter, Nunc) and stored at 4° C. A portion of pooled saliva was also diluted 1:2 in 1×PBS and processed as before. On the day of the assay, overnight cultures of JM11 and other oral streptococci were normalized to OD600 1.0 and ˜3×10^6 cfu/mL of each species was added to 10 mL of the TH-diluted saliva. […] At each time point, total biofilm growth was measured by reading absorbance at OD600, and the health of S. mutans within the population examined by relative luciferase expression (relative light unit, (RLU) production), as described previously (Merritt et al., 2005). […] RLU production was measured using a TD 20/20 luminometer (Turner Biosystems) and reported values were obtained from the average of 3 independent samples. […]\n1.9 C16G2 can selectively eliminate S. mutans from a mixed species biofilm. […] The mixed-species biofilms were formed with saliva, and then peptides (25 μM) suspended in saliva were added for 5 min and removed, and the post-treatment growth of the biofilm was further monitored. […]"}, "[3]": {"tested_on": "S. mutans biofilms", "assay": "Single-species biofilm regrowth after peptide exposure, S. mutans", "format": "cell-based, Streptococcus mutans", "details": "25 μM peptide, 1 min exposure", "procedure": "(§3) 1.5 Examination of antimicrobial activity against single-species biofilms. To initiate biofilm formation, ˜1×10^7 bacteria per well (from overnight cultures) were seeded in TH medium (100 μL) to a 96-well flat-bottom plate. For all streptococci except S. mutans, the medium was supplemented with 0.5% (w/v) mannose and glucose. S. mutans UA159 biofilms were grown with 0.5% (w/v) sucrose. Plates were then centrifuged briefly to pellet the cells, and bacteria were incubated for 3-4 hours at 37° C. for biofilm formation. After incubation, the supernatant was carefully removed and biofilms were treated with 25 μM peptide in 1×PBS or 1×PBS alone for 1 min. The peptide solution was then removed and 100 μL TH was added to further dilute any remaining peptide. To minimize biofilm loss, cells were briefly centrifuged after TH addition, after which the supernatants were removed and fresh medium plus appropriate sugars were returned. Cells were then incubated anaerobically at 37° C. and biofilm growth was monitored over time by measuring absorbance at OD600 with a microplate spectrophotometer (Benchmark Plus, BioRad)."}, "[4]": {"tested_on": "S. mutans", "format": "cell-based, Streptococcus mutans", "procedure": "as §1, §2"}, "[5]": {"tested_on": "S. mutans UA159", "assay": "Time-kill (bactericidal kinetics), planktonic S. mutans", "format": "cell-based, Streptococcus mutans", "details": "25 μM, 1 min exposure", "procedure": "1.4 Determination of bactericidal kinetics. To determine the short term killing rate and selectivity of C16G2 and G2 we performed time-kill experiments, essentially as described previously (Eckert et al., 2006). S. mutans UA159, S. gordonii, or S. sanguinis were grown to log phase and diluted to ˜1×10^5 cfu/mL in growth medium. Under aerobic conditions, 25 μM G2 or C16G2 was added to the cell suspension and incubated at 25° C. At 1 min, 10 μL of cell suspension was removed, rescued by dilution into growth medium (1:50) and kept on ice. For plating, 20-500 μL of rescued cells were spread on growth medium agar plates and colonies were counted after overnight incubation at 37° C. under anaerobic conditions. We considered 60 cfu/mL as the detection limit for this assay. Values of surviving cfu/mL were expressed as the ratio of survivors from C16G2-treated cultures to cfu/mL from samples exposed to G2."}, "[6]": {"tested_on": "S. sanguinis biofilms", "assay": "Single-species biofilm regrowth after peptide exposure, S. sanguinis", "format": "cell-based", "details": "25 μM peptide, 1 min exposure", "procedure": "as §3"}, "[7]": {"tested_on": "S. sanguinis", "format": "cell-based, S. sanguinis NY101", "procedure": "as §1, §2"}}, "note": "Like-named read-outs stand apart in the source and are kept apart here. No end group written: not given here.", "data": [{"substance": "TFFRLFNRSFTQALGKGGGKNLRIIRKGIHIIKKY-NH2 [Peptide C16G2]", "values": [{"measurement": "MIC", "setting": "[1]", "result": "23.5 ± 7.8", "unit": "µM"}, {"measurement": "difference in susceptibility between G2 and C16G2", "setting": "[1]; MIC, S. gordonii", "result": "≤ 2", "unit": "fold"}, {"measurement": "S. mutans population within mixed-species biofilm (luciferase activity, RLU/OD600)", "setting": "[2]", "result": "dramatically reduce the S. mutans population"}, {"measurement": "duration of selective inhibition of S. mutans growth within multi-species biofilm", "setting": "[2]", "result": "≥ 2", "unit": "h"}, {"measurement": "biofilm re-growth after treatment (OD600)", "setting": "[3]", "result": "severely inhibited"}, {"measurement": "increase in antimicrobial activity over the parental antimicrobial peptide G2", "setting": "[4]; MIC, S. mutans strains", "result": "4-5 fold"}, {"measurement": "MIC", "setting": "[4]; S. mutans 25175", "result": "3.8 ± 0.3", "unit": "µM"}, {"measurement": "MIC", "setting": "[4]; S. mutans T8", "result": "3.7 ± 0.2", "unit": "µM"}, {"measurement": "MIC", "setting": "[4]; S. mutans UA159", "result": "3.0 ± 1.6", "unit": "µM"}, {"measurement": "MIC", "setting": "[4]; S. mutans comD", "result": "5.1 ± 2.4", "unit": "µM"}, {"measurement": "activity in comparison to G2 (surviving cfu/mL)", "setting": "[5]", "result": "over 20 fold"}, {"measurement": "biofilm re-growth after treatment (OD600)", "setting": "[6]", "result": "grew similarly to untreated biofilms"}, {"measurement": "MIC", "setting": "[7]", "result": "19.1 ± 4.0", "unit": "µM"}, {"measurement": "difference in susceptibility between G2 and C16G2", "setting": "[7]; MIC, S. sanguinis", "result": "≤ 2", "unit": "fold"}]}]}
